# Source: patent US8445484B2, “Bicyclic peptidomimetic inhibitors of aspartyl-proteases for the treatment of infectious diseases” (Istituto Superiore di Sanita', priority 2008, dated 2013)
# Square brackets hold non-standard residues; d marks the D form. Peptide text beside a SMILES is read from it. * marks the point of attachment. Sta = CC(C)C[C@H](N)[C@@H](O)CC(=O)O; Isovaleryl = CC(C)CC(=O)*
# How the values were obtained:
# SAP2 = SAP2 (Candida albicans, UniProt P0DJ06); type: biochemical; settings: 10 μm compound; relative to pepstatin; pH 3.2, 30 min at 37° C.
# Sequence of SAP2 (P0DJ06 57-398): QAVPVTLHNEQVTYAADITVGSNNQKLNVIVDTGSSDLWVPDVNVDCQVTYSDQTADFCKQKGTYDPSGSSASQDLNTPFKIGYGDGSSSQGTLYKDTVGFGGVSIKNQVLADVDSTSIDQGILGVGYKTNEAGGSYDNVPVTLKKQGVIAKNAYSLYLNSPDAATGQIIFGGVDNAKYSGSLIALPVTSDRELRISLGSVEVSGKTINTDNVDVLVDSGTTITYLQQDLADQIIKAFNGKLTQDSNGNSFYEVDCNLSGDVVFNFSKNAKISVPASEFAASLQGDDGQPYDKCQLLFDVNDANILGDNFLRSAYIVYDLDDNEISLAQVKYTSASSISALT
# Description: Spectrophotometric method: protease activity of the various compounds of formula (I) was measured by a spectrophotometric assay with respect to pepstatin activity at the same concentration: each assay contained 50 μl of sample in 0.4 ml of 1% (w/v) BSA in 50 mM sodium citrate pH 3.2 and 50 μl of protease solution (1 μg/ml) After 30 min at 37° C. 1 ml 10% (w/v) trichloroacetic acid was added. The tubes were stored in ice for 30 min, and then centrifuged (3000 g) for 10 min. The absorbance of the supernatant was read at 280 nm. Control: 1% BSA in citrate buffer. One unit of the enzyme catalysed a ΔA280 of 1 min^−1. With the pure protease the assay was proportional to enzyme concentration over the range ΔA280 0.1-0.4 and a limit detection of 1 μg (De Bernardis F., Sullivan P. A., Cassone A. Medical Mycology 2001, 39, 303).
# C. albicans SA40 = experiment: Experimental rat vaginal infection, C. albicans SA40 clearance; type: in vivo, Candida albicans; settings: for Candida SA40 cells in vaginal fluid (CFU/ml): oophorectomized Wistar rats, intravaginal treatment 1, 24, 48 hrs after challenge
# Description: (§1) Experimental vaginal infection: for the experimental vaginal infection, a previously described rat vaginal model was adopted (De Bernardis, F.; Boccanera, M.; Adriani, D.; Spreghini, E.; Santoni, G.; Cassone, A. Infect. Immun., 1997, 65, 3399).
# (§2) In brief, oophorectomized female Wistar rats (80-100 g; Charles River Calco, Italy) were injected subcutaneously with 0.5 mg of estradiol benzoate (Estradiolo, Amsa Farmaceutici srl, Rome, Italy). Six days after the first estradiol the animals were inoculated intravaginally with […] yeast cells in 0.1 ml of saline solution of each C. albicans strain tested. The inoculum was dispensed into the vaginal cavity through a syringe equipped with a multipurpose calibrated tip (Combitip; PBI, Milan, Italy). The yeast cells had been previously grown in YPD broth (yeast extract 1%; peptone 2%; dextrose 2%) at 28° C. on a gyrator shaker (200 rpm), harvested by centrifugation (1500 g), washed, counted in a hemocytometer, and suspended to the required number in saline solution. The number of cells in the vaginal fluid was counted by culturing 100 μl samples (using a calibrated plastic loop, Disponoic, PBI, Milan, Italy) taken from each animals, on Sabouraud agar containing chloramphenicol (50 μg/ml) as previously described. The rat was considered infected when at least 1 CFU was present in the vaginal lavage, i.e. a count of […].
# (§3) Positive (pepstatin 10 μg; fluconazole 10 μg and negative (sterile saline solution) were similarly administered.
# C. albicans AIDS68 = experiment: Experimental rat vaginal infection, C. albicans AIDS68 (pharmacoresistant) clearance; type: in vivo, Candida albicans; settings: for Candida AIDS68 cells in vaginal fluid (CFU/ml): oophorectomized Wistar rats, intravaginal treatment 1, 24, 48 hrs after challenge
# Description: as §1, §2, §3
compound,measurement,setting,value
"COC(=O)[C@H](CC(C)C)N1C[C@H]2O[C@H](C(=O)N3CCCCC3)[C@@H](O2)C1=O [Cpd 1, (2S)-4-Methyl-2-[(1R,5S,7S)-2-oxo-7-(piperidine-1-carbonyl)-6,8-dioxa-3-aza-bicyclo[3.2.1]oct-3-yl]-pentanoic acid methyl ester]",1% percent of inhibition with respect to pepstatin at the same concentration,SAP2,37%
"COC(=O)[C@H](CC(C)C)N1C[C@H]2O[C@H](C(=O)N3CCOCC3)[C@@H](O2)C1=O [Cpd 2, 4′-Methyl-(2′S)-2′-[(1R,5S,7S)-7-(morpholine-4-carbonyl)-2-oxo-6,8-dioxa-3-aza-bicyclo[3.2.1]oct-3-yl]-pentanoic acid methyl ester]",1% percent of inhibition with respect to pepstatin at the same concentration,SAP2,32%
"CCCCNC(=O)CC(O)CNC(=O)[C@H](CC(C)C)N1C[C@H]2O[C@H](C(=O)N3CCCCC3)[C@@H](O2)C1=O (stereo partly drawn) [Cpd 3, (2S)-4-Methyl-2-[(1R,5S,7S)-2-oxo-7-(piperidine-1-carbonyl)-6,8-dioxa-3-aza-bicyclo[3.2.1]oct-3-yl]-pentanoic acid (3-butylcarbamoyl-2-hydroxy-propyl)-amide]",1% percent of inhibition with respect to pepstatin at the same concentration,SAP2,22%
O=C(NCCO)C1OC2CN(Cc3ccccc3)C(=O)C1O2 (stereo not shown) [Cpd 4],1% percent of inhibition with respect to pepstatin at the same concentration,SAP2,36%
CC(C)CC(CO)NC(=O)C1OC2CN(Cc3ccccc3)C(=O)C1O2 (stereo not shown) [Cpd 5],1% percent of inhibition with respect to pepstatin at the same concentration,SAP2,41%
O=C(C1OC2CN(Cc3ccccc3)C(=O)C1O2)N1CCCCC1 (stereo not shown) [Cpd 6],differences between treated and untreated control,"C. albicans SA40; SA40, starting day 1, P<0.01, Mann-withney U test",statistically significant
same,Candida SA40 cells in vaginal fluid (CFU/ml),C. albicans SA40; day 0,>100 ×1000
same,Candida SA40 cells in vaginal fluid (CFU/ml),C. albicans SA40; day 1,70 ± 1.3 ×1000
same,Candida SA40 cells in vaginal fluid (CFU/ml),C. albicans SA40; day 2,57.6 ± 1.4 ×1000
same,Candida SA40 cells in vaginal fluid (CFU/ml),C. albicans SA40; day 5,39.2 ± 3 ×1000
same,Candida SA40 cells in vaginal fluid (CFU/ml),C. albicans SA40; day 7,30.6 ± 1.8 ×1000
same,Candida SA40 cells in vaginal fluid (CFU/ml),C. albicans SA40; day 14,14.4 ± 1.6 ×1000
same,Candida SA40 cells in vaginal fluid (CFU/ml),C. albicans SA40; day 21,8 ± 1.5 ×1000
same,Candida SA40 cells in vaginal fluid (CFU/ml),C. albicans SA40; day 28,1.2 ± 0.7 ×1000
same,1% percent of inhibition with respect to pepstatin at the same concentration,SAP2,42%
same,differences between treated and untreated control,"C. albicans AIDS68; AIDS68, starting day 1, P<0.01, Mann-withney U test",statistically significant
same,Candida AIDS68 cells in vaginal fluid (CFU/ml),C. albicans AIDS68; day 0,>100 ± 0 ×1000
same,Candida AIDS68 cells in vaginal fluid (CFU/ml),C. albicans AIDS68; day 1,71.8 ± 1.3 ×1000
same,Candida AIDS68 cells in vaginal fluid (CFU/ml),C. albicans AIDS68; day 2,62.6 ± 1.5 ×1000
same,Candida AIDS68 cells in vaginal fluid (CFU/ml),C. albicans AIDS68; day 5,40.6 ± 1.4 ×1000
same,Candida AIDS68 cells in vaginal fluid (CFU/ml),C. albicans AIDS68; day 7,23.2 ± 1.4 ×1000
same,Candida AIDS68 cells in vaginal fluid (CFU/ml),C. albicans AIDS68; day 14,12.8 ± 1.2 ×1000
same,Candida AIDS68 cells in vaginal fluid (CFU/ml),C. albicans AIDS68; day 21,3.4 ± 1.7 ×1000
same,Candida AIDS68 cells in vaginal fluid (CFU/ml),C. albicans AIDS68; day 28,0 ± 0 ×1000
O=C(C1OC2CN(Cc3ccccc3)C(=O)C1O2)N1CCN(CCO)CC1 (stereo not shown) [Cpd 7],1% percent of inhibition with respect to pepstatin at the same concentration,SAP2,34%
O=C(C1OC2CN(Cc3ccccc3)C(=O)C1O2)N1CCOCC1 (stereo not shown) [Cpd 8],1% percent of inhibition with respect to pepstatin at the same concentration,SAP2,31%
CCOC(=O)N1CCN(C(=O)C2OC3CN(Cc4ccccc4)C(=O)C2O3)CC1 (stereo not shown) [Cpd 9],1% percent of inhibition with respect to pepstatin at the same concentration,SAP2,37%
O=C(NCCCO)C1OC2CN(Cc3ccccc3)C(=O)C1O2 (stereo not shown) [Cpd 10],1% percent of inhibition with respect to pepstatin at the same concentration,SAP2,12%
O=C(NC(CO)c1ccccc1)C1OC2CN(Cc3ccccc3)C(=O)C1O2 (stereo not shown) [Cpd 13],1% percent of inhibition with respect to pepstatin at the same concentration,SAP2,16%
O=C(NC(CO)Cc1ccccc1)C1OC2CN(Cc3ccccc3)C(=O)C1O2 (stereo not shown) [Cpd 14],1% percent of inhibition with respect to pepstatin at the same concentration,SAP2,19%
O=C(NC(CO)Cc1ccccc1)C1OC2CN(Cc3ccccc3)C(=O)C1O2 (stereo not shown) [Cpd 15],1% percent of inhibition with respect to pepstatin at the same concentration,SAP2,15%
CCCCNC(=O)C1OC2OC1C(=O)N(Cc1ccccc1)C2Cc1ccccc1 (stereo not shown) [Cpd 16],1% percent of inhibition with respect to pepstatin at the same concentration,SAP2,17%
CCCCCCNC(=O)C1OC2OC1C(=O)N(Cc1ccccc1)C2Cc1ccccc1 (stereo not shown) [Cpd 17],1% percent of inhibition with respect to pepstatin at the same concentration,SAP2,21%
O=C(NCC(F)(F)F)C1OC2OC1C(=O)N(Cc1ccccc1)C2Cc1ccccc1 (stereo not shown) [Cpd 18],1% percent of inhibition with respect to pepstatin at the same concentration,SAP2,17%
O=C(C1OC2OC1C(=O)N(Cc1ccccc1)C2Cc1ccccc1)N1CCOCC1 (stereo not shown) [Cpd 19],1% percent of inhibition with respect to pepstatin at the same concentration,SAP2,25%
O=C(C1OC2OC1C(=O)N(Cc1ccccc1)C2Cc1ccccc1)N1CCSCC1 (stereo not shown) [Cpd 20],1% percent of inhibition with respect to pepstatin at the same concentration,SAP2,28%
O=C(C1OC2OC1C(=O)N(Cc1ccccc1)C2Cc1ccccc1)N1CCN(CCO)CC1 (stereo not shown) [Cpd 21],1% percent of inhibition with respect to pepstatin at the same concentration,SAP2,31%
OC(Cn1cncn1)(Cn1cncn1)c1ccc(F)cc1F [fluconazole],Candida AIDS68 cells in vaginal fluid (CFU/ml),C. albicans AIDS68; day 0,>100 ± 0 ×1000
same,Candida AIDS68 cells in vaginal fluid (CFU/ml),C. albicans AIDS68; day 1,100 ± 0 ×1000
same,Candida AIDS68 cells in vaginal fluid (CFU/ml),C. albicans AIDS68; day 2,93 ± 4.3 ×1000
same,Candida AIDS68 cells in vaginal fluid (CFU/ml),C. albicans AIDS68; day 5,61 ± 2.5 ×1000
same,Candida AIDS68 cells in vaginal fluid (CFU/ml),C. albicans AIDS68; day 7,44 ± 2.9 ×1000
same,Candida AIDS68 cells in vaginal fluid (CFU/ml),C. albicans AIDS68; day 14,18.7 ± 3.8 ×1000
same,Candida AIDS68 cells in vaginal fluid (CFU/ml),C. albicans AIDS68; day 21,11.7 ± 0.7 ×1000
same,Candida AIDS68 cells in vaginal fluid (CFU/ml),C. albicans AIDS68; day 28,0 ± 0 ×1000
"CC(C)CC(=O)N[C@H](C(=O)N[C@H](C(=O)N[C@@H](CC(C)C)[C@@H](O)CC(=O)N[C@@H](C)C(=O)N[C@@H](CC(C)C)[C@@H](O)CC(=O)O)C(C)C)C(C)C [pepstatin, reference compound] (Isovaleryl-VV[Sta]A[Sta]-OH)",Candida SA40 cells in vaginal fluid (CFU/ml),C. albicans SA40; day 0,>100 ×1000
same,Candida SA40 cells in vaginal fluid (CFU/ml),C. albicans SA40; day 1,56.8 ± 2 ×1000
same,Candida SA40 cells in vaginal fluid (CFU/ml),C. albicans SA40; day 2,51 ± 1.2 ×1000
same,Candida SA40 cells in vaginal fluid (CFU/ml),C. albicans SA40; day 5,32.4 ± 2.5 ×1000
same,Candida SA40 cells in vaginal fluid (CFU/ml),C. albicans SA40; day 7,28 ± 1.5 ×1000
same,Candida SA40 cells in vaginal fluid (CFU/ml),C. albicans SA40; day 14,9.4 ± 1.4 ×1000
same,Candida SA40 cells in vaginal fluid (CFU/ml),C. albicans SA40; day 21,5 ± 1.3 ×1000
same,Candida SA40 cells in vaginal fluid (CFU/ml),C. albicans SA40; day 28,0 ×1000
same,Candida AIDS68 cells in vaginal fluid (CFU/ml),C. albicans AIDS68; day 0,>100 ± 0 ×1000
same,Candida AIDS68 cells in vaginal fluid (CFU/ml),C. albicans AIDS68; day 1,58.4 ± 1.0 ×1000
same,Candida AIDS68 cells in vaginal fluid (CFU/ml),C. albicans AIDS68; day 2,52.0 ± 1.3 ×1000
same,Candida AIDS68 cells in vaginal fluid (CFU/ml),C. albicans AIDS68; day 5,37.2 ± 1.6 ×1000
same,Candida AIDS68 cells in vaginal fluid (CFU/ml),C. albicans AIDS68; day 7,30.0 ± 1.2 ×1000
same,Candida AIDS68 cells in vaginal fluid (CFU/ml),C. albicans AIDS68; day 14,19.8 ± 0.8 ×1000
same,Candida AIDS68 cells in vaginal fluid (CFU/ml),C. albicans AIDS68; day 21,3.8 ± 1.9 ×1000
same,Candida AIDS68 cells in vaginal fluid (CFU/ml),C. albicans AIDS68; day 28,0 ± 0 ×1000
